Measurements published in patent US4442044A, “Process for preparing monoesters and diesters of N-alkyl substituted amino methyl phosphonic acid” (priority 1983, dated 1984).

How the values were obtained:
Assay in all cases: post-emergent herbicidal activity, greenhouse
Format in all cases: in vivo
Downy Brome = test system: Downy Brome
In short: (§1)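 Post-emergence foliar spray at tabulated application rates, using aliquots of a 1.0% stock in acetone, THF or water plus ~0.4% emulsifier, applied to 2–3-week-old greenhouse plants. Plant injury was rated relative to controls roughly two and four weeks after treatment.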

Wheat = settings: Table II
In short: as §1

Rice = settings: Table II
In short: as §1

Soybean = settings: Table II
In short: as §1

Smartweed = test system: Smartweed
In short: as §1

Morningglory = test system: Morningglory
In short: as §1

Hemp Sesbania = settings: Table II
In short: as §1

Cocklebur = test system: Cocklebur
In short: as §1

Canada Thistle = settings: Table I
In short: as §1

Crabgrass = settings: Table II
In short: as §1

Panicum Spp = settings: Table II
In short: as §1

Sorghum = settings: Table II
In short: as §1

Johnsongrass = settings: Table I
In short: as §1

Wild Buckwheat = settings: Table II
In short: as §1

Barnyardgrass = test system: Barnyardgrass
In short: as §1

Sugar Beet = settings: Table II
In short: as §1

Yellow Nutsedge = settings: Table I
In short: as §1

Lambsquarters = test system: Lambsquarters
In short: as §1

Quackgrass = settings: Table I
In short: as §1

Velvetleaf = test system: Velvetleaf
In short: as §1

CCOC(=O)CNCP(=O)(OC(C)CC(=O)OCC)OC(C)CC(=O)OCC (stereo not drawn) [Example 15, butanoic acid, 3,3'-[[[[(2-ethoxy-2-oxoethyl]amino]methyl]phospinylidene]bis-(oxy)]bis-, diethyl ester]
post-emergent herbicidal activity index (Downy Brome; Table I, 2 WAT, 5.6 kg/h): 0 (0-24% control) | post-emergent herbicidal activity index (Downy Brome; Table I, 4 WAT, 11.2 kg/h): 0 (0-24% control) | post-emergent herbicidal activity index (Downy Brome; Table II, 2 WAT, 1.12 kg/h): 0 (0-24% control) | post-emergent herbicidal activity index (Downy Brome; Table II, 4 WAT, 5.6 kg/h): 0 (0-24% control) | post-emergent herbicidal activity index (Wheat; 2 WAT, 1.12 kg/h): 0 (0-24% control) | post-emergent herbicidal activity index (Wheat; 4 WAT, 5.6 kg/h): 1 (25-49% control) | post-emergent herbicidal activity index (Rice; 2 WAT, 1.12 kg/h): 0 (0-24% control) | post-emergent herbicidal activity index (Rice; 4 WAT, 5.6 kg/h): 0 (0-24% control) | post-emergent herbicidal activity index (Soybean; 2 WAT, 1.12 kg/h): 0 (0-24% control) | post-emergent herbicidal activity index (Soybean; 4 WAT, 5.6 kg/h): 1 (25-49% control) | post-emergent herbicidal activity index (Smartweed; Table I, 2 WAT, 5.6 kg/h): 0 (0-24% control) | post-emergent herbicidal activity index (Smartweed; Table I, 4 WAT, 11.2 kg/h): 0 (0-24% control) | post-emergent herbicidal activity index (Smartweed; Table II, 2 WAT, 1.12 kg/h): 0 (0-24% control) | post-emergent herbicidal activity index (Smartweed; Table II, 4 WAT, 5.6 kg/h): 0 (0-24% control) | post-emergent herbicidal activity index (Morningglory; Table I, 2 WAT, 5.6 kg/h): 0 (0-24% control) | post-emergent herbicidal activity index (Morningglory; Table I, 4 WAT, 11.2 kg/h): 1 (25-49% control) | post-emergent herbicidal activity index (Morningglory; Table II, 2 WAT, 1.12 kg/h): 0 (0-24% control) | post-emergent herbicidal activity index (Morningglory; Table II, 4 WAT, 5.6 kg/h): 1 (25-49% control) | post-emergent herbicidal activity index (Hemp Sesbania; 2 WAT, 1.12 kg/h): 0 (0-24% control) | post-emergent herbicidal activity index (Hemp Sesbania; 4 WAT, 5.6 kg/h): 0 (0-24% control) | post-emergent herbicidal activity index (Cocklebur; Table I, 2 WAT, 5.6 kg/h): 0 (0-24% control) | post-emergent herbicidal activity index (Cocklebur; Table I, 4 WAT, 11.2 kg/h): 1 (25-49% control) | post-emergent herbicidal activity index (Cocklebur; Table II, 2 WAT, 1.12 kg/h): 0 (0-24% control) | post-emergent herbicidal activity index (Cocklebur; Table II, 4 WAT, 5.6 kg/h): 0 (0-24% control) | post-emergent herbicidal activity index (Canada Thistle; 2 WAT, 5.6 kg/h): 0 (0-24% control) | post-emergent herbicidal activity index (Canada Thistle; 4 WAT, 11.2 kg/h): 0 (0-24% control) | post-emergent herbicidal activity index (Crabgrass; 2 WAT, 1.12 kg/h): 0 (0-24% control) | post-emergent herbicidal activity index (Crabgrass; 4 WAT, 5.6 kg/h): 2 (50-74% control) | post-emergent herbicidal activity index (Panicum Spp; 2 WAT, 1.12 kg/h): 0 (0-24% control) | post-emergent herbicidal activity index (Panicum Spp; 4 WAT, 5.6 kg/h): 1 (25-49% control) | post-emergent herbicidal activity index (Sorghum; 2 WAT, 1.12 kg/h): 0 (0-24% control) | post-emergent herbicidal activity index (Sorghum; 4 WAT, 5.6 kg/h): 0 (0-24% control) | post-emergent herbicidal activity index (Johnsongrass; 2 WAT, 5.6 kg/h): 0 (0-24% control) | post-emergent herbicidal activity index (Johnsongrass; 4 WAT, 11.2 kg/h): 0 (0-24% control) | post-emergent herbicidal activity index (Wild Buckwheat; 2 WAT, 1.12 kg/h): 0 (0-24% control) | post-emergent herbicidal activity index (Wild Buckwheat; 4 WAT, 5.6 kg/h): 0 (0-24% control) | post-emergent herbicidal activity index (Barnyardgrass; Table I, 2 WAT, 5.6 kg/h): 0 (0-24% control) | post-emergent herbicidal activity index (Barnyardgrass; Table I, 4 WAT, 11.2 kg/h): 3 (75-99% control) | post-emergent herbicidal activity index (Barnyardgrass; Table II, 2 WAT, 1.12 kg/h): 0 (0-24% control) | post-emergent herbicidal activity index (Barnyardgrass; Table II, 4 WAT, 5.6 kg/h): 0 (0-24% control) | post-emergent herbicidal activity index (Sugar Beet; 2 WAT, 1.12 kg/h): 0 (0-24% control) | post-emergent herbicidal activity index (Sugar Beet; 4 WAT, 5.6 kg/h): 0 (0-24% control) | post-emergent herbicidal activity index (Yellow Nutsedge; 2 WAT, 5.6 kg/h): 0 (0-24% control) | post-emergent herbicidal activity index (Yellow Nutsedge; 4 WAT, 11.2 kg/h): 1 (25-49% control) | post-emergent herbicidal activity index (Lambsquarters; Table I, 2 WAT, 5.6 kg/h): 0 (0-24% control) | post-emergent herbicidal activity index (Lambsquarters; Table I, 4 WAT, 11.2 kg/h): 0 (0-24% control) | post-emergent herbicidal activity index (Lambsquarters; Table II, 2 WAT, 1.12 kg/h): 0 (0-24% control) | post-emergent herbicidal activity index (Lambsquarters; Table II, 4 WAT, 5.6 kg/h): 1 (25-49% control) | post-emergent herbicidal activity index (Quackgrass; 2 WAT, 5.6 kg/h): 0 (0-24% control) | post-emergent herbicidal activity index (Quackgrass; 4 WAT, 11.2 kg/h): 1 (25-49% control) | post-emergent herbicidal activity index (Velvetleaf; Table I, 2 WAT, 5.6 kg/h): 0 (0-24% control) | post-emergent herbicidal activity index (Velvetleaf; Table I, 4 WAT, 11.2 kg/h): 0 (0-24% control) | post-emergent herbicidal activity index (Velvetleaf; Table II, 2 WAT, 1.12 kg/h): 0 (0-24% control) | post-emergent herbicidal activity index (Velvetleaf; Table II, 4 WAT, 5.6 kg/h): 0 (0-24% control)
